Experimental data published in patent publication EP0429372A1, “2-Azolyl nicotinate derivatives as herbicides” (RHONE-POULENC AGROCHIMIE, priority 1989, dated 1991).
Like-named read-outs stand apart in the source and are kept apart here.

Tests used:
Format in all cases: in vivo
[1] = tested on: mauvaises herbes; assay: Procedure 1 b): weed control, pre-emergence application; settings: 4000 g/ha (procédé 1B), visual rating 17 to 20 days after spraying, vs control pots
Text: (§1) Des quantités appropriées des composés d'essai ont été dissoutes dans de l'acétone pour obtenir des solutions équivalant à des taux d'application de 250, 1000 ou 4000 g de composé d'essai par hectare (g/ha).
Des graines de mauvaises herbes ont été semées à la surface de compost de mise en pot John Innes N°1 (7 parties par volume de terre végétale stérilisée, 3 parties en volume de gravier fin) dans des pots en matière plastique de 70 mm de côté et 75 mm de profondeur. Les quantités de graines par pot étaient les suivantes :
Les composés de la présente invention ont été appliqués aux graines non recouvertes de la manière décrite dans le paragraphe (a) ci-dessus et ces graines ont été recouvertes avec 25ml de sable liant après pulvérisation. Un seul pot de chaque espèce de mauvaise herbe a été attribué à chaque traitement, en association avec des témoins n'ayant pas subi de pulvérisation et des témoins ayant subi une pulvérisation avec de l'acétone seule. Après traitement, les pots ont été maintenus dans une serre et ont été arrosés par aspersion. L'évaluation visuelle de l'activité de destruction des mauvaises herbes a été effectuée 17 à 20 jours après pulvérisation. Les résultats ont été exprimés par le pourcentage de réduction de croissance ou de mortalité des mauvaises herbes, comparativement aux plantes présentes dans les pots témoins.

[2] = tested on: mauvaises herbes; settings: post-emergence
Text: as §1
Des espèces de mauvaises herbes ont été cultivées, puis transplantées au stade de jeunes plants de semis dans du compost de mise en pot John Innes N°1 dans des pots en matière plastique de 70 mm de côté et 75 mm de profondeur, sauf en ce qui concerne Avena fatua, qui a été semée directement dans le pot d'essai et n' a pas été transplantée. Puis les plantes ont été cultivées dans la serre jusqu'à ce qu'elles soient prêtes à subir une pulvérisation avec les composés d'essai. Le nombre de plantes par pot et la croissance de la plante au moment de la pulvérisation étaient les suivantes :
Les composés d'essai ont été appliquées aux plantes de la manière décrite dans le paragraphe (a) ci-dessus. Un seul pot de chaque espèce de mauvaises a été attribué à chaque traitement, en association avec des témoins n'ayant pas subi de pulvérisation et des témoins ayant subi une pulvérisation avec de l'acétone seule. Après pulvérisation, les pots ont été arrossés par aspersion, en commençant 24 heures après pulvérisation. L'évalutation visuelle de la lutte contre la croissance des mauvaises herbes a été effectuée 17 à 20 jours après pulvérisation. Les résultats ont été exprimés en pourcentage de réduction de croissance ou de mortalité des mauvaises herbes, comparativement aux plantes présentes dans les pots témoins.

[3] = tested on: Triticum aestivum; assay: Example C: selectivity test in major crops, post-emergence application; settings: crop (Blé), dose 0,5 kg/ha, 24 days, score 0-5, 0 or 1 = selective; note: ranges in brackets are in %
Text: (§2) Dans des pots de 7 x 7 x 8 cm remplis de terre agricole légère, on sème un nombre de graines déterminé en fonction de l'espèce végétale et de la grosseur de la graine.
(§3) On recouvre ensuite les graines d'une couche de terre d'environ 3 mm d'épaisseur et on laisse germer la graine jusqu'à ce qu'elle donne naissance à une plantule au stade convenable. Le stade de traitement pour les graminées est le stade "deuxième feuille en formation". Le stade de traitement pour les dicotylédones, est le stade "cotylédons étalés, première feuille vraie en développement".
(§4) Les pots sont alors traités par pulvérisation de bouillie en quantité correspondant à une dose volumique d'application de 500 l/ha et contenant la matière active à la concentration désirée.
(§5) La bouillie a été préparée de la même manière qu'à l'exemple A.
(§6) Les pots traités sont ensuite placés dans des bacs destinés à recevoir l'eau d'arrosage, en subirrigation, et maintenus pendant 24 jours à température ambiante sous 70 % d'humidité relative.
(§7) Au bout de 24 jours, on mesure un pourcentage (D) de destruction du nombre de pieds dans le pot traité par rapport au nombre de plantes dans les pots non traités (témoin). On mesure, sur les plantes traitées restantes, le pourcentage de réduction de taille (RT) par rapport aux plantes témoin.
(§8) Le pourcentage de volume foliaire non détruit par le produit est donc donné par la formule : [formula]
(§9) Cette valeur A est transformée en notation de 0 à 5 selon l'échelle suivante :
(§10) Ainsi, un produit est jugé comme sélectif vis à vis de la culture lorsque la valeur A notée est de 0 ou 1.
(§11) Les résultats obtenus sont présentés dans l'exemple C pour des doses d'application comprises entre 0,5 et 4 kg de matière active par hectare selon les produits.

[4] = tested on: Oryza sativa; assay: as above; settings: crop (Riz), dose 0,5 kg/ha, 24 days, score 0-5, 0 or 1 = selective; note: ranges in brackets are in %
Text: as §2, §3, §4, §5, §6, §7, §8, §9, §10, §11

[5] = tested on: Zea mays; assay: as above; settings: crop (Maïs), dose 0,5 kg/ha, 24 days, score 0-5, 0 or 1 = selective; note: ranges in brackets are in %
Text: as §2, §3, §4, §5, §6, §7, §8, §9, §10, §11

[6] = tested on: Sesbania exaltata; assay: as above; settings: 500 g/ha, 576 h
Text: as §2, §3, §4, §5, §6, §7, §8, §9, §10, §11

[7] = tested on: Solanum nigrum; assay: as above; settings: 500 g/ha, 576 h
Text: as §2, §3, §4, §5, §6, §7, §8, §9, §10, §11

[8] = tested on: Viola tricolor; assay: as above; settings: 500 g/ha, 576 h
Text: as §2, §3, §4, §5, §6, §7, §8, §9, §10, §11

[9] = tested on: Ipomea pupurea; assay: as above; settings: 500 g/ha, 576 h
Text: as §2, §3, §4, §5, §6, §7, §8, §9, §10, §11

[10] = tested on: Xanthium pennsylvanicum; assay: as above; settings: 500 g/ha, 576 h
Text: as §2, §3, §4, §5, §6, §7, §8, §9, §10, §11

[11] = tested on: Sinapis alba; assay: Example B: post-emergence herbicidal application, pot test; settings: 1000 g/ha, 576 h
[12] = tested on: Digitaria sanguinalis; assay: as above; settings: 1000 g/ha, 576 h
Text: as §2
(§12) On recouvre ensuite les graines d'une couche de terre d'environ 3 mm d'épaisseur et on laisse germer la graine jusqu'à ce qu'elle donne naissance à une plantule au stade convenable. Le stade de traitement pour les graminées est le stade "deuxième feuille en formation ". Le stade de traitement pour les dicotylédones, est le stade "cotylédons étalés, première feuille vraie en développement".
as §4
(§13) La bouille a été préparée de la même manière qu'à l'exemple A.
as §6, §7
(§14) Le pourcentage du volume foliaire non détruit par le produit est donc donné par la formule : [formula]
as §9
(§15) Les résultats obtenus sont présentés après le tableau A pour des doses d'application de 4000 g/ha.

[13] = tested on: Ipomea purpurea; assay: as above; settings: 1000 g/ha, 576 h
Text: as §2, §12, §4, §13, §6, §7, §14, §9, §15

[14] = tested on: Solanum nigrum; assay: as above; settings: 1000 g/ha, 576 h
Text: as §2, §12, §4, §13, §6, §7, §14, §9, §15

[15] = tested on: Echinochloa crusgalli; assay: as above; settings: 1000 g/ha, 576 h
Text: as §2, §12, §4, §13, §6, §7, §14, §9, §15

[16] = tested on: Convolvulus arvensis; settings: post-emergence, 500 g/ha, 576 h
Text: as §2, §3, §4, §5, §6, §7, §8, §9, §10, §11

[17] = tested on: Chrysanthemum segetum; settings: post-emergence, 500 g/ha, 576 h
Text: as §2, §3, §4, §5, §6, §7, §8, §9, §10, §11

[18] = tested on: Polygonum convolvulus; settings: 500 g/ha, 576 h
Text: as §2, §3, §4, §5, §6, §7, §8, §9, §10, §11

With `CN(C)S(=O)(=O)n1c(-c2ncccc2C(=O)O)nc2cc(OC(F)(F)F)ccc21` [compound 92] the “réduction de la croissance d'une ou plusieurs des espèces de mauvaises herbes” value [1] was ≥ 90% and the “réduction de la croissance d'une ou plusieurs des espèces de mauvaises herbes” value [2] was ≥ 90%.

In the case of `CN(C)S(=O)(=O)n1c(-c2ncccc2C(=O)OCC(F)(F)F)nc2ccccc21` [compound 100], the “réduction de la croissance d'une ou plusieurs des espèces de mauvaises herbes” value [1] is reported as ≥ 90% and the “réduction de la croissance d'une ou plusieurs des espèces de mauvaises herbes” value [2] is reported as ≥ 90%.

`C=CCOC(=O)c1cccnc1-c1nc2ccccc2n1S(=O)(=O)N(C)C` [compound 101] was tested, and the “réduction de la croissance d'une ou plusieurs des espèces de mauvaises herbes” value [1] was ≥ 90% and the “réduction de la croissance d'une ou plusieurs des espèces de mauvaises herbes” value [2] was ≥ 90%.

`CN(C)S(=O)(=O)n1c(-c2ncccc2C(=O)O)nc2ccccc21` [compound 119] was tested, and the “ACTIVITE HERBICIDE DE POST LEVEE T R Z” value [3] was 0 (90 à 100), the “ACTIVITE HERBICIDE DE POST LEVEE O R Y” value [4] was 0 (90 à 100) and the “ACTIVITE HERBICIDE DE POST LEVEE Z E A” value [5] was 0 (90 à 100). The “ACTIVITE HERBICIDE DE POST LEVEE S E S” value [6] was 5 (O à 10), the “ACTIVITE HERBICIDE DE POST LEVEE S O L” value [7] was 4 (10 à 30) and the “ACTIVITE HERBICIDE DE POST LEVEE V I O” value [8] was 3 (30 à 50). The “ACTIVITE HERBICIDE DE POST LEVEE I P O” value [9] was 3 (30 à 50), the “ACTIVITE HERBICIDE DE POST LEVEE X A N” value [10] was 3 (30 à 50) and the “ACTIVITE DE POST-LEVEE SIN” value [11] was 4 (10 à 30). The “ACTIVITE DE POST-LEVEE DIG” value [12] was 0 (90 à 100), the “ACTIVITE DE POST-LEVEE IPO” value [13] was 3 (30 à 50) and the “ACTIVITE DE POST-LEVEE SOL” value [14] was 5 (O à 10). The “ACTIVITE DE POST-LEVEE ECH” value [15] was 0 (90 à 100), the “ACTIVITE HERBICIDE DE POST LEVEE C O N” value [16] was 2 (50 à 70) and the “ACTIVITE HERBICIDE DE POST LEVEE C H Y” value [17] was 5 (O à 10). The “ACTIVITE HERBICIDE DE POST LEVEE P O L” value [18] was 5 (O à 10).
